Measured values published in patent publication US12428427B2, “Methods and compositions for targeting PD-L1” (Aligos Therapeutics, Inc., priority 2021, dated 2025).

Columns and labels:
PD-1/PD-L1 interaction = target: T1, PD-1/PD-L1 interaction (Homo sapiens, UniProt Q9NZQ7); test: PD-1/PD-L1 NFAT Reporter Assay; format: cell-based; conditions: co-culture of PD-L1 expressing CHO cells and PD-1 overexpressing Jurkat cells, 6 hrs, NFAT luciferase
T1 construct: expressed in transfected cells; Jurkat cells (PD-1 plus NFAT-luciferase)
T1 sequence (Q9NZQ7 19-290): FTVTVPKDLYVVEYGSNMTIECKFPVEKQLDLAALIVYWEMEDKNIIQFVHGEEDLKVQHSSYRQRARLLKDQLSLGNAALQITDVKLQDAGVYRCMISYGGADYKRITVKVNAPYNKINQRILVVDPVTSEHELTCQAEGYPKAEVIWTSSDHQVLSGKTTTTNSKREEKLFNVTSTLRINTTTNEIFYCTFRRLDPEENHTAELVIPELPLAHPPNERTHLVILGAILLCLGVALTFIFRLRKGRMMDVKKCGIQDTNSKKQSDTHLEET
Procedure: Blocking the PD-1/PD-L1 interaction will release the inhibitory signal and results in TCR signaling and NFAT-mediated luciferase activity.
CHO cells expressing surface-bound anti-CD3 antibodies and PD-L1 were first seeded overnight and treated with the compounds. Jurkat cells overexpressing PD-1 and a luciferase construct under NFAT promoter were then immediately seeded on the monolayer of CHO cells. The co-culture was then incubated for 6 hrs at 37° C. Luciferase activity was assessed by adding the ONE-Glo reagent and measuring luminescence with a plate reader. EC50 values were determined from the fit of the dose-response curves.

PDL1/PD1 = PDL1/PD1 (Homo sapiens, UniProt Q9NZQ7); test: PDL1/PD1 Binding Assay; conditions: PDL1-6×His 0.3 nM, PD1-Fc-Avi-Biotin 2.5 nM, Acceptor/Donor beads; read-out: PD-1/PD-L1 PPI IC50
Sequence of PDL1/PD1 (Q9NZQ7 19-238 limits assumed): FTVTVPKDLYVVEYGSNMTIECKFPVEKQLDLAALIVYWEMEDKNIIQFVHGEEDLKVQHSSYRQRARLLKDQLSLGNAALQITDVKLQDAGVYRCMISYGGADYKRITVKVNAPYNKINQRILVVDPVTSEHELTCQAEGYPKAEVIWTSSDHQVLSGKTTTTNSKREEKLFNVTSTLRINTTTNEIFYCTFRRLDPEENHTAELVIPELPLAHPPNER
Procedure: Compounds to be tested were serially diluted in DMSO, and further diluted in assay buffer (25 mM Hepes pH 7.4, 150 mM NaCl, 0.005% Tween 20, BSA 0.01%). Diluted compounds were added to the wells with final concentration of DMSO at 1%. PDL1-6×His protein was added to the wells, mixed well with compound. The plates were incubated for 30 min at room temperature. PD1-Fc-Avi-Biotin protein was added to the wells. Final concentration of PDL1 and PD1 protein is 0.3 nM and 2.5 nM, respectively. After a binding time of 30 min at room temperature, Anti-6×His Acceptor beads (final concentration 20 ug/ml) were added to the wells, and the incubation continued for 1 h. Streptavidin Donor beads (final concentration 20 ug/mL) were added at reduced light. The plates were sealed with foil and incubated in the dark for additional 1 h or overnight before reading on an Envision reader. The IC50 values were determined by fitting the curves using a four-parameter equation in Graphpad Prism 8.

SMILES	EC50 (PD-1/PD-L1 interaction) [nM]	IC50 (PDL1/PD1) [nM]
COc1nc(-c2cccc(-c3cccc(NC(=O)c4ccnn(C)c4=O)c3Cl)c2Cl)ccc1CN1C(=O)O[C@H]2COCC[C@H]21 [Compound E-1]	> 10000	≤ 10
COc1nc(-c2cccc(-c3cccc(NC(=O)c4ccnn(C)c4=O)c3Cl)c2Cl)ccc1CN1CCCC[C@@H]1C(=O)O [Compound C-11]	100 to 1000	≤ 10
COc1nc(-c2cccc(-c3cccc(NC(=O)c4ccnn(C)c4=O)c3Cl)c2Cl)ccc1CN[C@@H](CO)C(=O)O [Compound C-47]	10 to 100	≤ 10
COc1nc(-c2cccc(-c3cccc(NC(=O)c4ccnn(C)c4=O)c3Cl)c2Cl)ccc1CN[C@@H]1CCOC[C@@H]1O [Compound C-1]	> 10000	≤ 10
COc1nc(-c2cccc(-c3cccc(NC(=O)c4ccnn(C)c4=O)c3Cl)c2Cl)ccc1CN1CCO[C@@H](C(=O)O)C1 [Compound C-30]	100 to 1000	≤ 10
COc1nc(-c2cccc(-c3cccc(NC(=O)c4ccnn(C)c4=O)c3Cl)c2Cl)ccc1CN1CCO[C@H](C(=O)O)C1 [Compound C-44]	10 to 100	≤ 10
CCOC(=O)C1CN(Cc2cnc(-c3cccc(-c4cccc(NC(=O)c5ccnn(C)c5=O)c4Cl)c3Cl)nc2OC)C1 [Compound C-79]	10 to 100	≤ 10
CCOC(=O)C1CN(Cc2cc(F)c(-c3cccc(-c4cccc(NC(=O)c5ccnn(C)c5=O)c4Cl)c3Cl)nc2OC)C1 [Compound C-77]	10 to 100	≤ 10
COc1nc(-c2cccc(-c3cccc(NC(=O)c4ccnn(C)c4=O)c3C)c2F)cc(C)c1CNC[C@@H]1CCC(=O)N1 [Compound B-4]	10 to 100	≤ 10
COc1nc(-c2cccc(-c3cccc(NC(=O)c4cc(Cl)n[nH]c4=O)c3Cl)c2Cl)cnc1CN1CC2(CCC(=O)N2)C1 [Compound A-3]	100 to 1000	≤ 10
COc1nc(-c2cccc(-c3cccc(NC(=O)c4ccnn(C)c4=O)c3Cl)c2Cl)ccc1CNCC(C)(C)C(=O)O [Compound C-35]	10 to 100	≤ 10
COC(=O)C12CCC(CC1)N(Cc1ccc(-c3cccc(-c4cccc(NC(=O)c5ccnn(C)c5=O)c4Cl)c3Cl)nc1OC)C2 [Compound C-22]	100 to 1000	≤ 10
COC(=O)C1CN(Cc2cc(F)c(-c3cccc(-c4cccc(NC(=O)c5ccnn(C)c5=O)c4Cl)c3Cl)nc2OC)C1 [Compound C-78]	100 to 1000	≤ 10
COc1nc(-c2cccc(-c3cccc(NC(=O)c4ccnn(C)c4=O)c3C)c2Cl)ccc1CN1CC(C)(C(=O)O)C1 [Compound C-60]	10 to 100	≤ 10
COc1nc(-c2cccc(-c3cccc(NC(=O)c4ccnn(C)c4=O)c3Cl)c2Cl)ccc1CNC1CCC[C@@H]1C(=O)O (stereo partly shown) [Compound C-39]	10 to 100	≤ 10
CCOC(=O)C1CN(Cc2c(C)cc(-c3cccc(-c4cccc(NC(=O)c5ccnn(C)c5=O)c4C)c3Cl)nc2OC)C1 [Compound C-90]	10 to 100	≤ 10

SMILES	EC50 (PD-1/PD-L1 interaction) [nM]	IC50 (PDL1/PD1) [nM]
CCOC(=O)[C@H]1CCN(Cc2ccc(-c3cccc(-c4cccc(NC(=O)c5ccnn(C)c5=O)c4Cl)c3Cl)nc2OC)C1 [Compound C-15]	10 to 100	10 to 100
COc1nc(-c2cccc(-c3cccc(NC(=O)c4ccnn(C)c4=O)c3Cl)c2Cl)ccc1CNC[C@H](C)O [Compound C-3]	10 to 100	≤ 10
COc1nc(-c2cccc(-c3cccc(NC(=O)c4ccnn(C)c4=O)c3Cl)c2Cl)ccc1CN1CC(CC(=O)O)C1 [Compound C-42]	10 to 100	≤ 10
COc1nc(-c2cccc(-c3cccc(NC(=O)c4ccnn(C)c4=O)c3Cl)c2Cl)cnc1CN1CC2(CCC(=O)N2)C1 [Compound A-1]	10 to 100	≤ 10
COc1nc(-c2cccc(-c3cccc(NC(=O)c4ccnn(C)c4=O)c3Cl)c2Cl)ccc1CN[C@@H]1CN(C(C)=O)C[C@H]1O [Compound C-49]	10 to 100	≤ 10
COc1nc(-c2cccc(-c3cccc(NC(=O)c4cc(C)n[nH]c4=O)c3Cl)c2Cl)cnc1CN1CC2(CCC(=O)N2)C1 [Compound A-4]	100 to 1000	≤ 10
COc1nc(-c2cccc(-c3cccc(NC(=O)c4ccnn(C)c4=O)c3Cl)c2Cl)ccc1CNCCO [Compound C-2]	10 to 100	≤ 10
CCOC(=O)C1CN(Cc2c(C)cc(-c3cccc(-c4cccc(NC(=O)c5ccnn(C)c5=O)c4Cl)c3Cl)nc2OC)C1 [Compound C-89]	10 to 100	≤ 10
COc1nc(-c2cccc(-c3cccc(NC(=O)c4ccnn(C)c4=O)c3Cl)c2Cl)ccc1CN1CCN(C(=O)OC(C)(C)C)[C@@H](C(=O)O)C1 [Compound C-24]	100 to 1000	≤ 10
CCOC(=O)[C@@H]1CCN(Cc2ccc(-c3cccc(-c4cccc(NC(=O)c5ccnn(C)c5=O)c4C)c3Cl)nc2OC)C1 [Compound C-57]	10 to 100	≤ 10
COc1nc(-c2cccc(-c3cccc(NC(=O)c4ccnn(C)c4=O)c3Cl)c2Cl)ccc1CN1CC(OC)C1 [Compound C-8]	10 to 100	≤ 10
COc1nc(-c2cccc(-c3cccc(NC(=O)c4ccnn(C)c4=O)c3C)c2Cl)ccc1CN1CC(C(=O)O)C1 [Compound C-54]	10 to 100	≤ 10
COc1nc(-c2cccc(-c3cccc(NC(=O)c4ccnn(C)c4=O)c3C)c2C)ccc1CN[C@@H]1CCOC[C@H]1O [Compound C-70]	10 to 100	≤ 10
CCOC(=O)C1CN(Cc2ccc(-c3cccc(-c4cccc(NC(=O)c5ccnn(C)c5=O)c4C)c3Cl)nc2OC)C1 [Compound C-53]	10 to 100	≤ 10
COc1nc(-c2cccc(-c3cccc(NC(=O)c4ccnn(C)c4=O)c3Cl)c2Cl)ccc1CN1CCC[C@H]1CC(=O)O [Compound C-34]	10 to 100	≤ 10

Results, then the compound that gave them:

EC50 (PD-1/PD-L1 interaction) [nM]	IC50 (PDL1/PD1) [nM]	SMILES
≤ 10	≤ 10	COc1nc(-c2cccc(-c3cccc(NC(=O)c4ccnn(C)c4=O)c3C)c2Cl)cnc1CN1CC[C@H](O)C1 [Compound C-87]
10 to 100	≤ 10	CCOC(=O)C1CN(Cc2ccc(-c3cccc(-c4cccc(NC(=O)c5ccnn(C)c5=O)c4Cl)c3Cl)nc2OC)C1 [Compound C-13]
≤ 10	≤ 10	COc1nc(-c2cccc(-c3cccc(NC(=O)c4ccnn(C)c4=O)c3Cl)c2Cl)ccc1CNC[C@@H](C)O [Compound C-4]
10 to 100	≤ 10	COc1nc(-c2cccc(-c3cccc(NC(=O)c4ccnn(C)c4=O)c3Cl)c2Cl)ccc1CNC[C@H](C)C(=O)O [Compound C-36]
≤ 10	≤ 10	COc1nc(-c2cccc(-c3cccc(NC(=O)c4ccnn(C)c4=O)c3Cl)c2Cl)ccc1CN1CC(C(=O)O)C1 [Compound C-9]
≤ 10	≤ 10	COc1nc(-c2cccc(-c3cccc(NC(=O)c4ccnn(C)c4=O)c3Cl)c2Cl)ncc1CN[C@@H]1CCOC[C@@H]1O [Compound C-81]
10 to 100	≤ 10	COc1nc(-c2cccc(-c3cccc(NC(=O)c4ccnn(C)c4=O)c3Cl)c2Cl)ncc1CN1CC(O)C1 [Compound C-82]
10 to 100	≤ 10	COc1nc(-c2cccc(-c3cccc(NC(=O)c4ccnn(C)c4=O)c3Cl)c2Cl)cnc1CNC[C@@H]1CCC(=O)N1 [Compound B-1]
10 to 100	≤ 10	COc1nc(-c2cccc(-c3cccc(NC(=O)c4ccnn(C)c4=O)c3C)c2Cl)ccc1CN1CC[C@H](C(=O)O)C1 [Compound C-56]
10 to 100	≤ 10	COc1nc(-c2cccc(-c3cccc(NC(=O)c4ccnn(C)c4=O)c3C)c2Cl)ccc1CN1CC[C@@H](C(=O)O)C1 [Compound C-58]
≤ 10	≤ 10	COc1nc(-c2cccc(-c3cccc(NC(=O)c4ccnn(C)c4=O)c3Cl)c2Cl)ccc1CN1CC[C@H](O)C1 [Compound C-50]
≤ 10	≤ 10	COc1nc(-c2cccc(-c3cccc(NC(=O)c4ccnn(C)c4=O)c3C)c2Cl)ccc1CNC1CCN(C(C)=O)C[C@@H]1O (stereo in doubt) [Compound C-69]
≤ 10	≤ 10	COc1nc(-c2cccc(-c3cccc(NC(=O)c4ccnn(C)c4=O)c3Cl)c2Cl)cc(C)c1CNC[C@@H]1CCC(=O)N1 [Compound B-3]
≤ 10	≤ 10	COc1nc(-c2cccc(-c3cccc(NC(=O)c4ccnn(C)c4=O)c3Cl)c2Cl)ccc1CN1CC(O)C1 [Compound C-7]
≤ 10	≤ 10	COc1nc(-c2cccc(-c3cccc(NC(=O)c4ccnn(C)c4=O)c3C)c2Cl)ccc1CN1CC[C@@H](O)C1 [Compound C-67]
≤ 10	≤ 10	COc1nc(-c2cccc(-c3cccc(NC(=O)c4ccnn(C)c4=O)c3C)c2Cl)ccc1CNC[C@@H]1CCC(=O)N1 [Compound B-6]
